Data published in PubChem BioAssay AID2060498 (Molecular Pharmacology Branch, DTP, NCI, 2025).
One block for each compound: values may come before it.

Test system: 171881-019-R-J1-PDC tumor spheroids, viability
Assay: Anticancer human tumor 171881-019-R-J1-PDC patient-derived invasive breast carcinoma cell line growth inhibition [GQUAD]
Conditions: spheroids with HUVEC and MSC; for IC50: curve of first compound; for viability, T/C: stronger effect = lower value
Summary of the method: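 Tumor cells were grown as complex spheroids with HUVEC endothelial cells and mesenchymal stem cells as stroma. G-quadruplex stabilizers were combined with targeted agents over half-log dilutions from near the clinical Cmax, or from 10 microM.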

[1] = second compound 0.0316 µM, first compound 0.0316 µM
[2] = second compound 0.0316 µM, first compound 0.1 µM
[3] = second compound 0.0316 µM, first compound 0.316 µM
[4] = second compound 0.0316 µM, first compound 1 µM
[5] = second compound 0.0316 µM, first compound 3.16 µM
[6] = second compound 0.0316 µM, first compound 10 µM
[7] = second compound 0.1 µM, first compound 0.0316 µM
[8] = second compound 0.1 µM, first compound 0.1 µM
[9] = second compound 0.1 µM, first compound 0.316 µM
[10] = second compound 0.1 µM, first compound 1 µM
[11] = second compound 0.1 µM, first compound 3.16 µM
[12] = second compound 0.1 µM, first compound 10 µM
[13] = second compound 0.316 µM, first compound 0.0316 µM
[14] = second compound 0.316 µM, first compound 0.1 µM
[15] = second compound 0.316 µM, first compound 0.316 µM
[16] = second compound 0.316 µM, first compound 1 µM
[17] = second compound 0.316 µM, first compound 3.16 µM
[18] = second compound 0.316 µM, first compound 10 µM
[19] = second compound 1 µM, first compound 0.0316 µM
[20] = second compound 1 µM, first compound 0.1 µM
[21] = second compound 1 µM, first compound 0.316 µM
[22] = second compound 1 µM, first compound 1 µM
[23] = second compound 1 µM, first compound 3.16 µM
[24] = second compound 1 µM, first compound 10 µM
[25] = second compound 3.16 µM, first compound 0.0316 µM
[26] = second compound 3.16 µM, first compound 0.1 µM
[27] = second compound 3.16 µM, first compound 0.316 µM
[28] = second compound 3.16 µM, first compound 1 µM
[29] = second compound 3.16 µM, first compound 3.16 µM
[30] = second compound 3.16 µM, first compound 10 µM
[31] = second compound 10 µM, first compound 0.0316 µM
[32] = second compound 10 µM, first compound 0.1 µM
[33] = second compound 10 µM, first compound 0.316 µM
[34] = second compound 10 µM, first compound 1 µM
[35] = second compound 10 µM, first compound 3.16 µM
[36] = second compound 10 µM, first compound 10 µM
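Further: spheroids exposed to compounds for 7 days.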
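Wherever viability, T/C is given: 100% = DMSO vehicle control viability.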

SMILES: CC1COCCN1c1cc(-c2ccnn2C)c2ccnc(-c3ccn[nH]3)c2n1 (stereo not given) + Cc1[nH]c2ccc(F)cc2c1-c1nc2c3cccnc3c3ncccc3c2[nH]1
IC50 (second compound 0.0316 µM): 64.8 nM
IC50 (second compound 0.1 µM): 62.3 nM
IC50 (second compound 0.316 µM): 60.6 nM
IC50 (second compound 1 µM): 42.6 nM
IC50 (second compound 3.16 µM): < 31.6 nM
IC50 (second compound 10 µM): < 31.6 nM
viability, T/C [1]: 80%
viability, T/C [2]: 31.4%
viability, T/C [3]: 14.5%
viability, T/C [4]: 8.57%
viability, T/C [5]: 5.08%
viability, T/C [6]: 5.43%
viability, T/C [7]: 71.2%
viability, T/C [8]: 35.2%
viability, T/C [9]: 15.3%
viability, T/C [10]: 8.2%
viability, T/C [11]: 5.64%
viability, T/C [12]: 5.65%
viability, T/C [13]: 74%
viability, T/C [14]: 31%
viability, T/C [15]: 16.2%
viability, T/C [16]: 7.52%
viability, T/C [17]: 5.84%
viability, T/C [18]: 5.85%
viability, T/C [19]: 59%
viability, T/C [20]: 24.8%
viability, T/C [21]: 14.6%
viability, T/C [22]: 9.37%
viability, T/C [23]: 6.91%
viability, T/C [24]: 6.37%
viability, T/C [25]: 16.6%
viability, T/C [26]: 12.9%
viability, T/C [27]: 10.5%
viability, T/C [28]: 6.96%
viability, T/C [29]: 5.31%
viability, T/C [30]: 4.34%
viability, T/C [31]: 18%
viability, T/C [32]: 16.2%
viability, T/C [33]: 11.8%
viability, T/C [34]: 8.67%
viability, T/C [35]: 5.67%
viability, T/C [36]: 5.17%

SMILES: CC(C)(O)C1CCC(Nc2ccc3ncc(-c4cccc(C(F)(F)F)c4)n3n2)CC1 (stereo not given) + Cc1[nH]c2ccc(F)cc2c1-c1nc2c3cccnc3c3ncccc3c2[nH]1
IC50 (second compound 0.0316 µM): 1830 nM
IC50 (second compound 0.1 µM): 1820 nM
IC50 (second compound 0.316 µM): 1390 nM
IC50 (second compound 1 µM): 614 nM
IC50 (second compound 3.16 µM): < 31.6 nM
IC50 (second compound 10 µM): < 31.6 nM
viability, T/C [1]: 94.8%
viability, T/C [2]: 104%
viability, T/C [3]: 88.4%
viability, T/C [4]: 74.5%
viability, T/C [5]: 23.8%
viability, T/C [6]: 32%
viability, T/C [7]: 99.5%
viability, T/C [8]: 96.7%
viability, T/C [9]: 97.8%
viability, T/C [10]: 73.5%
viability, T/C [11]: 25.4%
viability, T/C [12]: 31.1%
viability, T/C [13]: 78.7%
viability, T/C [14]: 71.6%
viability, T/C [15]: 66.2%
viability, T/C [16]: 60%
viability, T/C [17]: 24%
viability, T/C [18]: 25.4%
viability, T/C [19]: 63.6%
viability, T/C [20]: 47.6%
viability, T/C [21]: 58.8%
viability, T/C [22]: 45.2%
viability, T/C [23]: 16.4%
viability, T/C [24]: 10.9%
viability, T/C [25]: 6.94%
viability, T/C [26]: 4.45%
viability, T/C [27]: 5.15%
viability, T/C [28]: 3.84%
viability, T/C [29]: 2.07%
viability, T/C [30]: 0.75%
viability, T/C [31]: 36.5%
viability, T/C [32]: 42%
viability, T/C [33]: 28.6%
viability, T/C [34]: 24.1%
viability, T/C [35]: 5.07%
viability, T/C [36]: 3.8%

Further lines, with some results ahead:

IC50 (second compound 0.0316 µM): 167 nM
IC50 (second compound 0.1 µM): 194 nM
IC50 (second compound 0.316 µM): 160 nM
IC50 (second compound 1 µM): 148 nM
IC50 (second compound 3.16 µM): 118 nM
IC50 (second compound 10 µM): 111 nM
SMILES: O=C(NO)c1cnc(N2CCN(S(=O)(=O)c3ccc4ccccc4c3)CC2)nc1 + Cc1cnc(CNC(=O)c2c(=O)c3ccc(N4CCCN(C)CC4)nc3n3c2sc2ccccc23)cn1
viability, T/C [1]: 81.5%
viability, T/C [2]: 60.9%
viability, T/C [3]: 36.3%
viability, T/C [4]: 2.76%
viability, T/C [5]: 0.43%
viability, T/C [6]: 0.3%
viability, T/C [7]: 75.5%
viability, T/C [8]: 68.2%
viability, T/C [9]: 36.2%
viability, T/C [10]: 2.32%
viability, T/C [11]: 0.07%
viability, T/C [12]: 0.41%
viability, T/C [13]: 60.8%
viability, T/C [14]: 61.7%
viability, T/C [15]: 33.8%
viability, T/C [16]: 1.48%
viability, T/C [17]: 0.32%
viability, T/C [18]: 0.45%
viability, T/C [19]: 67%
viability, T/C [20]: 57.1%
viability, T/C [21]: 32.3%
viability, T/C [22]: 0.14%
viability, T/C [23]: 0.48%
viability, T/C [24]: 0.09%
viability, T/C [25]: 60%
viability, T/C [26]: 51.9%
viability, T/C [27]: 27.6%
viability, T/C [28]: 0.22%
viability, T/C [29]: 0.63%
viability, T/C [30]: 0.36%
viability, T/C [31]: 52.8%
viability, T/C [32]: 52.5%
viability, T/C [33]: 23.7%
viability, T/C [34]: 0.3%
viability, T/C [35]: 0.83%
viability, T/C [36]: 0.13%

IC50 (second compound 0.0316 µM): > 10000 nM
IC50 (second compound 0.1 µM): > 10000 nM
IC50 (second compound 0.316 µM): > 10000 nM
IC50 (second compound 1 µM): > 10000 nM
IC50 (second compound 3.16 µM): > 10000 nM
IC50 (second compound 10 µM): > 10000 nM
SMILES: O=c1[nH]cc(F)c(=O)[nH]1 + Cc1cnc(CNC(=O)c2c(=O)c3ccc(N4CCCN(C)CC4)nc3n3c2sc2ccccc23)cn1
viability, T/C [1]: 80.2%
viability, T/C [2]: 69.5%
viability, T/C [3]: 57.5%
viability, T/C [4]: 57.4%
viability, T/C [5]: 54.5%
viability, T/C [6]: 57%
viability, T/C [7]: 77.7%
viability, T/C [8]: 67.7%
viability, T/C [9]: 62.2%
viability, T/C [10]: 58.3%
viability, T/C [11]: 59.4%
viability, T/C [12]: 60.4%
viability, T/C [13]: 68.9%
viability, T/C [14]: 71.2%
viability, T/C [15]: 65.6%
viability, T/C [16]: 58.7%
viability, T/C [17]: 65.2%
viability, T/C [18]: 59.4%
viability, T/C [19]: 67.7%
viability, T/C [20]: 60.6%
viability, T/C [21]: 65.5%
viability, T/C [22]: 60.2%
viability, T/C [23]: 66.2%
viability, T/C [24]: 63.1%
viability, T/C [25]: 65%
viability, T/C [26]: 59.6%
viability, T/C [27]: 58.9%
viability, T/C [28]: 55.5%
viability, T/C [29]: 65%
viability, T/C [30]: 62.3%
viability, T/C [31]: 59.1%
viability, T/C [32]: 59.6%
viability, T/C [33]: 55.1%
viability, T/C [34]: 57.7%
viability, T/C [35]: 61.5%
viability, T/C [36]: 54%

IC50 (second compound 0.0316 µM): 2.09 nM
IC50 (second compound 0.1 µM): 3.31 nM
IC50 (second compound 0.316 µM): 5.81 nM
IC50 (second compound 1 µM): 8.53 nM
IC50 (second compound 3.16 µM): 7.26 nM
IC50 (second compound 10 µM): 5.9 nM
SMILES: CCc1c2c(nc3ccc(O)cc13)-c1cc3c(c(=O)n1C2)COC(=O)[C@]3(O)CC + Cc1cnc(CNC(=O)c2c(=O)c3ccc(N4CCCN(C)CC4)nc3n3c2sc2ccccc23)cn1
viability, T/C (second compound 0.0316 µM, first compound 0.000999 µM): 62.6%
viability, T/C (second compound 0.0316 µM, first compound 0.00316 µM): 39.1%
viability, T/C (second compound 0.0316 µM, first compound 0.00999 µM): 36.5%
viability, T/C [1]: 30.9%
viability, T/C (second compound 0.0316 µM, first compound 0.0999 µM): 26.2%
viability, T/C [3]: 19.9%
viability, T/C (second compound 0.1 µM, first compound 0.000999 µM): 57.7%
viability, T/C (second compound 0.1 µM, first compound 0.00316 µM): 49.3%
viability, T/C (second compound 0.1 µM, first compound 0.00999 µM): 43.5%
viability, T/C [7]: 35.3%
viability, T/C (second compound 0.1 µM, first compound 0.0999 µM): 26.4%
viability, T/C [9]: 20.2%
viability, T/C (second compound 0.316 µM, first compound 0.000999 µM): 61.6%
viability, T/C (second compound 0.316 µM, first compound 0.00316 µM): 55.5%
viability, T/C (second compound 0.316 µM, first compound 0.00999 µM): 46.1%
viability, T/C [13]: 35.5%
viability, T/C (second compound 0.316 µM, first compound 0.0999 µM): 27.7%
viability, T/C [15]: 18.8%
viability, T/C (second compound 1 µM, first compound 0.000999 µM): 60.3%
viability, T/C (second compound 1 µM, first compound 0.00316 µM): 53.2%
viability, T/C (second compound 1 µM, first compound 0.00999 µM): 51.6%
viability, T/C [19]: 34.3%
viability, T/C (second compound 1 µM, first compound 0.0999 µM): 24%
viability, T/C [21]: 15.8%
viability, T/C (second compound 3.16 µM, first compound 0.000999 µM): 60.8%
viability, T/C (second compound 3.16 µM, first compound 0.00316 µM): 50.1%
viability, T/C (second compound 3.16 µM, first compound 0.00999 µM): 52.9%
viability, T/C [25]: 35.4%
viability, T/C (second compound 3.16 µM, first compound 0.0999 µM): 26%
viability, T/C [27]: 13.8%
viability, T/C (second compound 10 µM, first compound 0.000999 µM): 52.3%
viability, T/C (second compound 10 µM, first compound 0.00316 µM): 55.1%
viability, T/C (second compound 10 µM, first compound 0.00999 µM): 47.4%
viability, T/C [31]: 37.3%
viability, T/C (second compound 10 µM, first compound 0.0999 µM): 24.8%
viability, T/C [33]: 12.6%
